The source made the active and inactive calls. The calls are words filed in the database; no cut-off is given here.
What was measured:
K562 [1] = assay: Antiproliferative activity against human K562 cells assessed as inhibition of cell growth measured after 72 hrs by CCK8 assay; assay type: functional, cell-based; conditions: K562, 72 h
HL-60 = assay: Antiproliferative activity against human HL-60 cells assessed as inhibition of cell growth measured after 72 hrs by CCK8 assay; assay type: functional, cell-based; conditions: HL-60, 72 h
U-937 = assay: Antiproliferative activity against human U-937 cells assessed as inhibition of cell growth measured after 72 hrs by CCK8 assay; assay type: functional, cell-based; conditions: U-937, 72 h
BaF3 = assay: Antiproliferative activity against mouse BaF3 cells expressing Bcr/Abl-T315I mutant assessed as inhibition of cell growth measured after 72 hrs by CCK8 assay; assay type: functional, cell-based; conditions: BaF3, 72 h
MOLT-4 = assay: Antiproliferative activity against human MOLT-4 cells assessed as inhibition of cell growth measured after 72 hrs by CCK8 assay; assay type: functional, cell-based; conditions: MOLT-4, 72 h
MV4-11 = assay: Antiproliferative activity against human MV4-11 cells assessed as inhibition of cell growth measured after 72 hrs by CCK8 assay; assay type: functional, cell-based; conditions: MV4-11, 72 h
OCI-Ly3 = assay: Antiproliferative activity against human OCILY3 cells assessed as inhibition of cell growth measured after 72 hrs by CCK8 assay; assay type: functional, cell-based; conditions: OCI-Ly3, 72 h
HCT-116 = assay: Antiproliferative activity against human HCT-116 cells assessed as inhibition of cell growth measured after 72 hrs by CCK8 assay; assay type: functional, cell-based; conditions: HCT-116, 72 h
NCI-H716 = assay: Antiproliferative activity against human NCI-H716 cells assessed as inhibition of cell growth measured after 72 hrs by CCK8 assay; assay type: functional, cell-based; conditions: NCI-H716, 72 h
NCI-H1975 = assay: Antiproliferative activity against human NCI-H1975 cells assessed as inhibition of cell growth measured after 72 hrs by CCK8 assay; assay type: functional, cell-based; conditions: NCI-H1975, 72 h
NCI-H1299 = assay: Antiproliferative activity against human NCI-H1299 cells assessed as inhibition of cell growth measured after 72 hrs by CCK8 assay; assay type: functional, cell-based; conditions: NCI-H1299, 72 h
4T1 = assay: Antiproliferative activity against mouse 4T1 cells assessed as inhibition of cell growth measured after 72 hrs by CCK8 assay; assay type: functional, cell-based; conditions: 4T1, 72 h
Huh-7 = assay: Antiproliferative activity against human Huh-7 cells assessed as inhibition of cell growth measured after 72 hrs by CCK8 assay; assay type: functional, cell-based; conditions: Huh-7, 72 h
[2] = Cytotoxicity against human HL7702 cells assessed as inhibition of cell growth measured after 72 hrs by CCK8 assay; assay type: toxicity, cell-based; conditions: HL7702 (L02) cells
A204 = assay: Antiproliferative activity against human A204 cells assessed as inhibition of cell growth measured after 72 hrs by CCK8 assay; assay type: functional, cell-based; conditions: A204, 72 h
MDA-MB-453 = assay: Antiproliferative activity against human MDA-MB-453 cells assessed as inhibition of cell growth measured after 72 hrs by CCK8 assay; assay type: functional, cell-based; conditions: MDA-MB-453, 72 h
K562 [3] = assay: Downregulation of Bcr-Abl expression in human K562 cells incubated for 24 hrs by Western blotting analysis; assay type: functional, cell-based; conditions: dose 11.1-900 nM
K562 [4] = assay: Downregulation of Myc expression in human K562 cells incubated for 24 hrs by Western blotting analysis; assay type: functional, cell-based; conditions: dose 11.1-900 nM
K562 [5] = assay: Downregulation of Mcl-1 expression in human K562 cells incubated for 24 hrs by Western blotting analysis; assay type: functional, cell-based; conditions: dose 11.1-900 nM
K562 [6] = assay: Downregulation of HSP90 expression in human K562 cells at 11.1 to 900 nM incubated for 24 hrs by Western blotting analysis; assay type: functional, cell-based; conditions: dose 11.1-900 nM
K562 [7] = assay: Downregulation of p38 expression in human K562 cells at 11.1 to 900 nM incubated for 24 hrs by Western blotting analysis; assay type: functional, cell-based; conditions: dose 11.1-900 nM

| SMILES | IC50 (K562 [1]) | IC50 (HL-60) | IC50 (U-937) | also measured |
| --- | --- | --- | --- | --- |
| COC(=O)C[C@H](Cc1ccccc1)C(=O)O[C@@H]1C(OC)=C[C@]23CCCN2CCc2cc4c(cc2[C@H]13)OCO4 | 96 nM | 155 nM | 170 nM | – |
| COC(=O)C[C@H](Cc1cccc(Br)c1)C(=O)O[C@@H]1C(OC)=C[C@]23CCCN2CCc2cc4c(cc2[C@H]13)OCO4 | 203 nM | 235 nM | 214 nM | – |
| COC(=O)C[C@H](Cc1ccc(O)cc1)C(=O)O[C@@H]1C(OC)=C[C@]23CCCN2CCc2cc4c(cc2[C@H]13)OCO4 | 96 nM | 153 nM | 150 nM | – |
| Cc1nc(Nc2ncc(C(=O)Nc3c(C)cccc3Cl)s2)cc(N2CCN(CCO)CC2)n1 [DASATINIB] | 1 nM | 15000 nM | 15000 nM | – |
| COC(=O)C[C@H](Cc1ccc2ccccc2c1)C(=O)O[C@@H]1C(OC)=C[C@]23CCCN2CCc2cc4c(cc2[C@H]13)OCO4 | 344 nM | 396 nM | 441 nM | – |
| COC(=O)C[C@@H](Cc1cccs1)C(=O)O[C@@H]1C(OC)=C[C@]23CCCN2CCc2cc4c(cc2[C@H]13)OCO4 | 186 nM | 246 nM | 277 nM | – |
| COC(=O)C[C@H](Cc1cccc(N)c1)C(=O)O[C@@H]1C(OC)=C[C@]23CCCN2CCc2cc4c(cc2[C@H]13)OCO4 | 121 nM | 145 nM | 213 nM | – |
| COC1=C[C@]23CCCN2CCc2cc4c(cc2[C@@H]3[C@@H]1O)OCO4 [CEPHALOTAXINE] | > 30000 nM | > 30000 nM | > 30000 nM | – |
| COC(=O)C[C@H](C)C(=O)O[C@@H]1C(OC)=C[C@]23CCCN2CCc2cc4c(cc2[C@H]13)OCO4 | 14500 nM | 18000 nM | 13800 nM | – |
| COC(=O)C[C@H](CCC(C)(C)C)C(=O)O[C@@H]1C(OC)=C[C@]23CCCN2CCc2cc4c(cc2[C@H]13)OCO4 | 368 nM | 907 nM | 1220 nM | – |
| COC(=O)C[C@@H](Cc1ccccc1)C(=O)O[C@@H]1C(OC)=C[C@]23CCCN2CCc2cc4c(cc2[C@H]13)OCO4 | 404 nM | 548 nM | 725 nM | – |
| COC(=O)C[C@H](Cc1cccc(F)c1)C(=O)O[C@@H]1C(OC)=C[C@]23CCCN2CCc2cc4c(cc2[C@H]13)OCO4 | 123 nM | 122 nM | 174 nM | – |
| CCOC(=O)C[C@H](Cc1ccc(OCc2ccccc2)cc1)C(=O)O[C@@H]1C(OC)=C[C@]23CCCN2CCc2cc4c(cc2[C@H]13)OCO4 | 693 nM | 890 nM | 1050 nM | – |
| COC(=O)C[C@H](Cc1ccc(F)cc1)C(=O)O[C@@H]1C(OC)=C[C@]23CCCN2CCc2cc4c(cc2[C@H]13)OCO4 | 207 nM | 266 nM | 288 nM | – |
| COC(=O)C[C@H](Cc1cccc(NC(=O)OC(C)(C)C)c1)C(=O)O[C@@H]1C(OC)=C[C@]23CCCN2CCc2cc4c(cc2[C@H]13)OCO4 | 163 nM | 199 nM | 257 nM | – |
| COC(=O)C[C@H](Cc1ccccc1O)C(=O)O[C@@H]1C(OC)=C[C@]23CCCN2CCc2cc4c(cc2[C@H]13)OCO4 | 681 nM | 718 nM | 807 nM | – |
| COC(=O)C[C@H](Cc1ccc(OC(C)=O)cc1)C(=O)O[C@@H]1C(OC)=C[C@]23CCCN2CCc2cc4c(cc2[C@H]13)OCO4 | 121 nM | 142 nM | 204 nM | – |
| COC(=O)C[C@H](Cc1ccc(Br)cc1)C(=O)O[C@@H]1C(OC)=C[C@]23CCCN2CCc2cc4c(cc2[C@H]13)OCO4 | 553 nM | 701 nM | 929 nM | – |
| CCOC(=O)C[C@H](Cc1ccc(O)cc1)C(=O)O[C@@H]1C(OC)=C[C@]23CCCN2CCc2cc4c(cc2[C@H]13)OCO4 | 572 nM | 576 nM | 834 nM | – |
| COC(=O)C[C@H](Cc1cccc(OCc2ccccc2)c1)C(=O)O[C@@H]1C(OC)=C[C@]23CCCN2CCc2cc4c(cc2[C@H]13)OCO4 | 152 nM | 202 nM | 248 nM | – |
| COC(=O)C[C@H](Cc1ccc(NC(=O)OC(C)(C)C)cc1)C(=O)O[C@@H]1C(OC)=C[C@]23CCCN2CCc2cc4c(cc2[C@H]13)OCO4 | 149 nM | 155 nM | 130 nM | – |
| COC(=O)C[C@@H](Cc1ccc(F)cc1)C(=O)O[C@@H]1C(OC)=C[C@]23CCCN2CCc2cc4c(cc2[C@H]13)OCO4 | 373 nM | 597 nM | 673 nM | – |
| COC(=O)C[C@H](Cc1ccc(OCc2ccccc2)cc1)C(=O)O[C@@H]1C(OC)=C[C@]23CCCN2CCc2cc4c(cc2[C@H]13)OCO4 | 103 nM | 151 nM | 174 nM | – |
| COC(=O)C[C@H](Cc1ccccc1Br)C(=O)O[C@@H]1C(OC)=C[C@]23CCCN2CCc2cc4c(cc2[C@H]13)OCO4 | 464 nM | 535 nM | 700 nM | – |
| COC(=O)C[C@](O)(CCCC(C)(C)O)C(=O)O[C@@H]1C(OC)=C[C@]23CCCN2CCc2cc4c(cc2[C@H]13)OCO4 [OMACETAXINE MEPESUCCINATE] | 14 nM | 13 nM | 12 nM | IC50 (BaF3): 81 nM; IC50 (MOLT-4): 7 nM; IC50 (MV4-11): 5 nM; IC50 (OCI-Ly3): 5 nM; IC50 (HCT-116): 13 nM; IC50 (NCI-H716): 65 nM; IC50 (NCI-H1975): 22 nM; IC50 (NCI-H1299): 22 nM; IC50 (4T1): 60 nM; IC50 (Huh-7): 40 nM; IC50 at 72 h [2]: 64 nM; IC50 (A204): 4 nM; IC50 (MDA-MB-453): 21 nM |
| COC(=O)C[C@H](Cc1ccc(N)cc1)C(=O)O[C@@H]1C(OC)=C[C@]23CCCN2CCc2cc4c(cc2[C@H]13)OCO4 | 112 nM | 130 nM | 121 nM | IC50 (BaF3): 246 nM; IC50 (MOLT-4): 60 nM; IC50 (MV4-11): 98 nM; IC50 (OCI-Ly3): 58 nM; IC50 (HCT-116): 107 nM; IC50 (NCI-H716): 107 nM; IC50 (NCI-H1975): 11900 nM; IC50 (NCI-H1299): 173 nM; IC50 (4T1): 296 nM; IC50 (Huh-7): 216 nM; IC50 at 72 h [2]: 494 nM; IC50 (A204): 38 nM; IC50 (MDA-MB-453): 70 nM; Activity (K562 [3]): Dose-Dependent Effect; Activity (K562 [4]): Dose-Dependent Effect; Activity (K562 [5]): Dose-Dependent Effect; Activity (K562 [6]): inactive; Activity (K562 [7]): inactive |
| COC(=O)C[C@H](Cc1ccccc1OCc1ccccc1)C(=O)O[C@@H]1C(OC)=C[C@]23CCCN2CCc2cc4c(cc2[C@H]13)OCO4 | 482 nM | 569 nM | 725 nM | – |
| COC(=O)C[C@H](Cc1cccc(O)c1)C(=O)O[C@@H]1C(OC)=C[C@]23CCCN2CCc2cc4c(cc2[C@H]13)OCO4 | 139 nM | 184 nM | 176 nM | – |
| Cc1ccc(NC(=O)c2ccc(CN3CCN(C)CC3)cc2)cc1Nc1nccc(-c2cccnc2)n1 [IMATINIB] | 135 nM | 28500 nM | 16600 nM | – |

Reference: ChEMBL document CHEMBL5247597, “Enantioselective semisynthesis of novel cephalotaxine esters with potent antineoplastic activities against leukemia” (Eur J Med Chem, 2022)
